Among the data in ChEMBL document CHEMBL4130586, “Antiprotozoal Sesquiterpene Lactones and Other Constituents from Tarchonanthus camphoratus and Schkuhria pinnata” (J Nat Prod, 2018) are IC50 and selectivity ratio values, retold here.

Series [1] concerns Trypanosoma brucei rhodesiense. The experiment in a line: Antitrypanosomal activity against Trypanosoma brucei rhodesiense STIB 900 bloodstream forms after 72 hrs by alamar blue staining based fluorescence assay. It counts as functional, organism-based. Conditions: STIB 900, 72 h. Background: Alamar Blue is a resazurin reagent that responds to reducing activity.
The subject of series [2] is L6. As to the kind of experiment: Cytotoxicity against rat L6 cells after 72 hrs by alamar blue staining based fluorescence assay. It counts as cell-based. The settings on record: L6, 72 h.
Series [3] is described as follows: Selectivity index, ratio of IC50 for rat L6 cells to IC50 for Trypanosoma brucei rhodesiense STIB 900 bloodstream forms. It counts as toxicity. The settings on record: read-out: Ratio IC50.

For `C=C1C(=O)O[C@@H]2/C=C(/C)[C@@H]3C/C=C(/C[C@@H](OC(=O)/C(=C/CO)CO)[C@@H]12)C[C@@](O)(C(C)C)C(=O)O3`, the IC50 in series [1] stood at 900 nM; in series [2], 3.8 µM. Besides, the selectivity ratio in series [3] was determined as 4.1.

In the case of `C=C1C(=O)O[C@@H]2/C=C(/C)[C@@H](OC(C)=O)C/C=C(\C)C[C@@H](OC(=O)c3ccoc3)[C@@H]12`, the IC50 was determined as 100 nM in series [1] and 2.1 µM in series [2]. Besides, the selectivity ratio in series [3] amounted to 20.5.

On to `C=C1C(=O)O[C@@H]2/C=C(/C)[C@@H](O)C[C@H]3O[C@]3(C)C[C@@H](OC(=O)/C(=C/COC(=O)C(O)C(C)C)CO)[C@@H]12` (stereo not given in full), for which the IC50 in series [1] worked out at 910 nM; in series [2] it was 14.4 µM. Further, in series [3], the selectivity ratio was 15.8.

Regarding `C=C1C(=O)O[C@@H]2/C=C(/C)[C@@H](OC(C)=O)C[C@H]3O[C@]3(C)C[C@@H](OC(=O)/C(=C/CO)CO)[C@@H]12`, the IC50 stood at 920 nM in series [1] and 14.6 µM in series [2]. For the same compound, the selectivity ratio in series [3] was 15.8.

On to `C=C1C(=O)O[C@@H]2/C=C(/C)[C@@H](OC(C)=O)C/C=C(\C)C[C@@H](OC(=O)C3=CC(O)OC3)[C@@H]12` (stereo not given in full), for which the figures for the IC50 in series [1] and in series [2] were 350 nM and 4.1 µM, respectively. The selectivity ratio in series [3] came out at 11.5.

Regarding `C=C1C(=O)O[C@@H]2/C=C(/C)[C@@H](OC(C)=O)C/C=C(\C)C[C@@H](OC(=O)/C(=C\CO)CO)[C@@H]12`, the IC50 in series [1] stood at 1700 nM; in series [2], 54.6 µM. Also, the selectivity ratio in series [3] is 31.1.

Consider `C=C1C(=O)O[C@@H]2/C=C(\C)[C@@H](O)C/C=C(\C)C[C@@H](OC(=O)/C(C)=C/CO)[C@@H]12`, for which the IC50 in series [1] worked out at 5400 nM; in series [2], 51.7 µM. The selectivity ratio in series [3] is 9.6.

On to `C=C1C(=O)O[C@@H]2/C=C(/C)[C@@H](OC(C)=O)C/C=C(\C)C[C@@H](OC(=O)/C(=C/CO)CO)[C@@H]12`, for which the results for the concentration for half-maximal inhibition (IC50) in series [1] and in series [2] were 1100 nM and 7.8 µM, respectively. For the same compound, in series [3], the selectivity ratio came out at 6.9.

Turning to `C=C1C(=O)O[C@H]2[C@H]1[C@H](OC(=O)/C(=C/CO)CO)CC(=C)[C@@H]1CC(=O)C(C)[C@H]21` (stereo not given in full), the IC50 was found to be 600 nM in series [1] and 12.3 µM in series [2]. Besides, the selectivity ratio in series [3] was 19.2.

In the case of `C=C1C[C@@H](OC(=O)/C(=C/CO)CO)[C@H]2C(=C)C(=O)O[C@@H]2[C@H]2C(C)=C[C@@H](O)[C@@H]12`, the IC50 in series [1] came out at 7300 nM; in series [2], 42.8 µM. Further, the selectivity ratio in series [3] came out at 5.9.

`C=C1C(=O)O[C@@H]2/C=C(/C)[C@@H](OC(=O)C(O)C(C)C)C/C=C(\C)C[C@@H](OC(=O)/C(=C/CO)CO)[C@@H]12` (stereo not given in full): the IC50 in series [1] amounted to 820 nM; in series [2], 11 µM. Further, the selectivity ratio in series [3] is 13.4.

On to `C=C1C(=O)O[C@@H]2/C=C(/C)[C@@H](OC(C)=O)C/C=C(\C)C[C@@H](OC(=O)/C(C)=C/CO)[C@@H]12`, for which the results for the IC50 in series [1] and in series [2] were 1700 nM and 7.94 µM, respectively. For the same compound, the selectivity ratio in series [3] was determined as 4.6.

For the compound `COc1cc(CCCO)cc(O)c1OC`, the half-inhibitory concentration (IC50) in series [1] stood at 9800 nM; in series [2] it was 149 µM. In series [3], the selectivity ratio came to 15.2.

In the case of `C=C1C(=O)O[C@@H]2/C=C(\C)[C@@H](O)C/C=C(\C)C[C@@H](OC(=O)/C(=C/COC(=O)C(O)C(C)C)CO)[C@@H]12` (stereo not given in full), the 50% inhibitory concentration (IC50) in series [1] is 2600 nM; in series [2], 34.1 µM. Besides, in series [3], the selectivity ratio stood at 13.

In the case of `C=C1C(=O)O[C@@H]2/C=C(\C)[C@@H](O)C/C=C(\C)C[C@@H](OC(=O)/C(=C/COC(=O)C(O)C(C)CC)CO)[C@@H]12` (stereo not given in full), the IC50 stood at 4000 nM in series [1] and 42.3 µM in series [2]. The selectivity ratio in series [3] was 10.5.

On to `C=C1C(=O)O[C@@H]2/C=C(/C)[C@@H](OC(=O)C(O)C(C)C)C/C=C(\C)C[C@@H](OC(=O)c3ccoc3)[C@@H]12` (stereo not given in full), for which the IC50 in series [1] amounted to 130 nM; in series [2] it was 3.9 µM. In series [3], the selectivity ratio is 29.7.

For `C=C1C(=O)O[C@H]2[C@H]1[C@H](OC(=O)/C(=C/COC(=O)C(O)C(C)C)CO)C[C@]1(C)[C@@H]2[C@H](C)C(=O)C[C@H]1O` (stereo not given in full), the figures for the IC50 in series [1] and in series [2] were 2700 nM and 39.7 µM, respectively. Besides, the selectivity ratio in series [3] amounted to 14.6.

Consider `C=C1C(=O)O[C@@H]2C3O[C@]3(C)CC/C=C(\C)CC[C@@H]12` (stereo not given in full), for which the IC50 in series [1] amounted to 390 nM; in series [2] it was 7.2 µM. Further, in series [3], the selectivity ratio was found to be 18.6.

On to `C=C1C(=O)O[C@@H]2/C=C(\C)CC/C=C(\C)C[C@@H](OC(=O)/C(=C/CO)CO)[C@@H]12`, for which the IC50 in series [1] is 1200 to 1400 nM; in series [2] it was 15.5 µM. In series [3], the selectivity ratio came out at 11.1.

As to `COc1ccc(-c2cc(=O)c3c(O)c(OC)c(O)cc3o2)cc1` [PECTOLINARIGENIN], the results for the IC50 in series [1] and in series [2] were 6100 nM and 20.2 µM, respectively. Further, the selectivity ratio in series [3] was 3.3.

As a reminder, the IC50 is the concentration at which inhibition is half-maximal.
